Measurements from ChEMBL document CHEMBL4342489, “Structure-Activity Relationship Evaluation of Wasp Toxin β-PMTX Leads to Analogs with Superior Activity for Human Neuronal Sodium Channels” (ACS Med Chem Lett, 2020).
Active and inactive are the calls of the source. No cut-off for these calls is given here. Non-standard residues stand in square brackets, D forms with d. Residues, ends and D or L forms follow the SMILES beside them. 1Nal = N[C@@H](Cc1cccc2ccccc12)C(=O)O; 2Nal = N[C@@H](Cc1ccc2ccccc2c1)C(=O)O

Assays:
[1] = target: Sodium channel protein type 8 subunit alpha (Homo sapiens) (UniProt Q9UQD0); experiment: Activation of human Nav1.6 expressed in HEK293 cells assessed as ratio of compound activation AUC to baseline activation AUC at 3.3 uM at -120 mV holding potential by Qpatch assay; assay type: cell-based
Sodium channel protein type 8 subunit alpha (Homo sapiens), sequence (Q9UQD0 whole entry, looked up): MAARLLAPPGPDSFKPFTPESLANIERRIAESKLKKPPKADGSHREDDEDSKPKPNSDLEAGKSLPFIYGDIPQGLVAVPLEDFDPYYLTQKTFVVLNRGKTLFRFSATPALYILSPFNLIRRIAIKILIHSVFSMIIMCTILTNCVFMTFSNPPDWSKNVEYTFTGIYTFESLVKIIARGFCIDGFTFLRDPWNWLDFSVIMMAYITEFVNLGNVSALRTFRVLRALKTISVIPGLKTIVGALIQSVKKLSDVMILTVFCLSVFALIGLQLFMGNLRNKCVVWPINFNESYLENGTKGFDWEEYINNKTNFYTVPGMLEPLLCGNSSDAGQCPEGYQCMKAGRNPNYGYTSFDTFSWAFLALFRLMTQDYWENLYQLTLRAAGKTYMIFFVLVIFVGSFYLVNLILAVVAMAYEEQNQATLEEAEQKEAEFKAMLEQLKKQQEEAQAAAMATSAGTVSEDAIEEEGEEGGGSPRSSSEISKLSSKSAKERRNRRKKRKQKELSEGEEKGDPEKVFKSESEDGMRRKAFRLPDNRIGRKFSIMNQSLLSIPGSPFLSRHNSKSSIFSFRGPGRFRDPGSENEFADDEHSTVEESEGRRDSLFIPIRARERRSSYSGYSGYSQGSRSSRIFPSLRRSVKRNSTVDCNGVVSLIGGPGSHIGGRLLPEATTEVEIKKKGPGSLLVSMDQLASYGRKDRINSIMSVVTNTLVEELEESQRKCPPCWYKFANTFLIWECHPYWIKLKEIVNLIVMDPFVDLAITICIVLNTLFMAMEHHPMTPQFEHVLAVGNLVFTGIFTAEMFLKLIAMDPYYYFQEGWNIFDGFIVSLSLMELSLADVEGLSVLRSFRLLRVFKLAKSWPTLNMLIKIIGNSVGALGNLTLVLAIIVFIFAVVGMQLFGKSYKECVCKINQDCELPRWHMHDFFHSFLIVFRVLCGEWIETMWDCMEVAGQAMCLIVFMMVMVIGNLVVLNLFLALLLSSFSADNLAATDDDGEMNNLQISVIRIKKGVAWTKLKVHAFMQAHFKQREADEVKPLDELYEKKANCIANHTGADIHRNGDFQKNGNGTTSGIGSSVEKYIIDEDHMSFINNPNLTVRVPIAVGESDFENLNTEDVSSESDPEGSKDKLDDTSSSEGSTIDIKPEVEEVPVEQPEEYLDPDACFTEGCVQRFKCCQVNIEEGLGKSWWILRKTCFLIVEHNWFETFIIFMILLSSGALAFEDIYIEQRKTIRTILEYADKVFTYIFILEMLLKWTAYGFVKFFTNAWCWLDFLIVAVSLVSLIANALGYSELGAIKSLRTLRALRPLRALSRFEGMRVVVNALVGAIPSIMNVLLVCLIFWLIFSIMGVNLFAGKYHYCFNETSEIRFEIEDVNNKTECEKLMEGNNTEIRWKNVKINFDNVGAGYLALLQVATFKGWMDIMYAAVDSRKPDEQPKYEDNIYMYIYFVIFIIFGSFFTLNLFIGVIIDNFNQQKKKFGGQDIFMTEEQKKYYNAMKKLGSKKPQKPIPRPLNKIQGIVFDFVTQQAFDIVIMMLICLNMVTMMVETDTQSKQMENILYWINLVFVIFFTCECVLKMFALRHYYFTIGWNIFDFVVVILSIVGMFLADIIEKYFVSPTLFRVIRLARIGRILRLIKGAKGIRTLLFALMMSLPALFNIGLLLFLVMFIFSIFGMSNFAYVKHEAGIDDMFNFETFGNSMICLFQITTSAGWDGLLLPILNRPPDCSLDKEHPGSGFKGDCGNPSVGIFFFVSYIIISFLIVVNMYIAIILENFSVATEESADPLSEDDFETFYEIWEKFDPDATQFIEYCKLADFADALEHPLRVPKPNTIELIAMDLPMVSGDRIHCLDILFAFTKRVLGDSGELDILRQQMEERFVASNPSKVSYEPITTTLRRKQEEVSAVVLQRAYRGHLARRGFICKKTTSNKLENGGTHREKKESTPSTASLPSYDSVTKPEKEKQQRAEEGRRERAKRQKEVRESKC

[2] = target: Sodium channel protein type 4 subunit alpha (Homo sapiens) (UniProt P35499); experiment: Activation of human Nav1.4 expressed in HEK293 cells assessed as ratio of compound activation AUC to baseline activation AUC at 3.3 uM at -120 mV holding potential by Qpatch assay; assay type: cell-based
[3] = target: Sodium channel protein type 5 subunit alpha (Homo sapiens, UniProt Q14524); experiment: Activation of human Nav1.5 expressed in HEK293 cells assessed as ratio of compound activation AUC to baseline activation AUC at 3.3 uM at -120 mV holding potential by Qpatch assay; assay type: cell-based; details: hek293, 3.3 µM
Sodium channel protein type 5 subunit alpha, sequence (Q14524 whole entry): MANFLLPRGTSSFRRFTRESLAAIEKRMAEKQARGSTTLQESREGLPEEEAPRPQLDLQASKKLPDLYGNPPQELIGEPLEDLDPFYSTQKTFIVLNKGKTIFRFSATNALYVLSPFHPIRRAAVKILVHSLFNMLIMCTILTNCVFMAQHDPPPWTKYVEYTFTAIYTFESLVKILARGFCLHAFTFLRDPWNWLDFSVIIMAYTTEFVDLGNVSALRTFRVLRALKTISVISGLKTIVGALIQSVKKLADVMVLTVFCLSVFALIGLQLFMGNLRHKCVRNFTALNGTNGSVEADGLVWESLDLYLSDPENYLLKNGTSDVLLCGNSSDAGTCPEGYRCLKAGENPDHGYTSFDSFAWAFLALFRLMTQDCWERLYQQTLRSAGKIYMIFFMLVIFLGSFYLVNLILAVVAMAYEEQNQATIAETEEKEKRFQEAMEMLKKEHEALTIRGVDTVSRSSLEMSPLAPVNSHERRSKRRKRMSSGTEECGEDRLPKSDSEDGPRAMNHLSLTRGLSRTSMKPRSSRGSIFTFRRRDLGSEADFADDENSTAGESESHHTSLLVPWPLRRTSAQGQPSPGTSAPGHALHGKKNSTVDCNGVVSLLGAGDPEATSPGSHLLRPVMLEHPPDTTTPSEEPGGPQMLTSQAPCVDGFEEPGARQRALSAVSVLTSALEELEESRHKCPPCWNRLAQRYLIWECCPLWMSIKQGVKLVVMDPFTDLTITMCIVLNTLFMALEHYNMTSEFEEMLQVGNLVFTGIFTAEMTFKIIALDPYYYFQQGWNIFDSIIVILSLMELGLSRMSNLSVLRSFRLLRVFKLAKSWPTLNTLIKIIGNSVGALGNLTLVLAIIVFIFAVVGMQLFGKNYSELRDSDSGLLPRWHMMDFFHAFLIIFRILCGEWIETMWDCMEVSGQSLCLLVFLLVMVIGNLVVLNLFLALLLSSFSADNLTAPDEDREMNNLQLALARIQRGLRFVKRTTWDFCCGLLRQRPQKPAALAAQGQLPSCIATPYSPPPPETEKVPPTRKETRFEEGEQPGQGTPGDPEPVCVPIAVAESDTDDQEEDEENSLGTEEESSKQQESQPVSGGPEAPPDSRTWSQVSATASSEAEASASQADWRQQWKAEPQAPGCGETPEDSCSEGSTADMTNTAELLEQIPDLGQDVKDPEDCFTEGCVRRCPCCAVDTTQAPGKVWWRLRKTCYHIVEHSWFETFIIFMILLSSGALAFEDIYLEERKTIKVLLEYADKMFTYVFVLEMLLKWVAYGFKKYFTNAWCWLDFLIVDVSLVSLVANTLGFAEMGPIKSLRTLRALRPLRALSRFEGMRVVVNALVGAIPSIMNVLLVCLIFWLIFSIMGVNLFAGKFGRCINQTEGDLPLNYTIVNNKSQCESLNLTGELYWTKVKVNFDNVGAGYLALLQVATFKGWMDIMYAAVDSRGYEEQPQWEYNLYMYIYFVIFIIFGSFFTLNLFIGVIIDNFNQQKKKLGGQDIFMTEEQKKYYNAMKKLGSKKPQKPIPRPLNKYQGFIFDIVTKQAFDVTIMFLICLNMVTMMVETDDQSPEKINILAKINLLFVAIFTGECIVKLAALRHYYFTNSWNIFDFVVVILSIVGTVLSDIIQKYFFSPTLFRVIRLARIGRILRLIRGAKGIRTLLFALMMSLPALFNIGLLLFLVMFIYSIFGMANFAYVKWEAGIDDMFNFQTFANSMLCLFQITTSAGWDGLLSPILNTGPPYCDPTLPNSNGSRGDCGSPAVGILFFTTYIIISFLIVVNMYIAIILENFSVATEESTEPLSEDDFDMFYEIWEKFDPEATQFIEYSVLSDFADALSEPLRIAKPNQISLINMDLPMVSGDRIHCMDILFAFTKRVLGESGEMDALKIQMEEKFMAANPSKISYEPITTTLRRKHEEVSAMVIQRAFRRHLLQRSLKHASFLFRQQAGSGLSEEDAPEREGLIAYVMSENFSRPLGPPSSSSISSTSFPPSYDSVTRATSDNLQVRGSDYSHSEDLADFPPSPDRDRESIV

[4] = target: Sodium channel protein type 9 subunit alpha (Homo sapiens) (UniProt Q15858); experiment: Activation of human Nav1.7 expressed in HEK293 cells assessed as ratio of compound activation AUC to baseline activation AUC at 3.3 uM at -120 mV holding potential by Qpatch assay; assay type: cell-based
[5] = target: Sodium channel protein type 3 subunit alpha (Homo sapiens) (UniProt Q9NY46); experiment: Activation of human Nav1.3 expressed in CHOK1 cells assessed as ratio of compound activation AUC to baseline activation AUC at 3.3 uM at -120 mV holding potential by Qpatch assay; assay type: cell-based
[6] = target: Sodium channel protein type 1 subunit alpha (Homo sapiens) (UniProt P35498); experiment: Activation of human Nav1.1 expressed in HEK293 cells assessed as ratio of compound activation AUC to baseline activation AUC at 3.3 uM at -120 mV holding potential by Qpatch assay; assay type: cell-based
[7] = target: Sodium channel protein type 1 subunit alpha (Homo sapiens) (UniProt P35498); experiment: Activation of human Nav1.1 expressed in HEK293 cells at 3.3 uM at -120 mV holding potential by Qpatch assay relative to control; assay type: cell-based
[8] = target: Sodium channel protein type 1 subunit alpha (Homo sapiens) (UniProt P35498); experiment: Activation of human Nav1.1 expressed in HEK293 cells assessed as ratio of compound activation AUC to baseline activation AUC at 0.12 uM at -120 mV holding potential by Qpatch assay; assay type: cell-based
[9] = target: Sodium channel protein type 1 subunit alpha (Homo sapiens) (UniProt P35498); experiment: Activation of human Nav1.1 expressed in HEK293 cells assessed as ratio of compound activation AUC to baseline activation AUC at 0.37 uM at -120 mV holding potential by Qpatch assay; assay type: cell-based
[10] = target: Sodium channel protein type 2 subunit alpha (Homo sapiens) (UniProt Q99250); experiment: Activation of human Nav1.2 expressed in CHOK1 cells assessed as ratio of compound activation AUC to baseline activation AUC at 3.3 uM at -120 mV holding potential by Qpatch assay; assay type: cell-based
[11] = target: Sodium channel protein type 1 subunit alpha (Homo sapiens) (UniProt P35498); experiment: Activation of human Nav1.1 expressed in HEK293 cells assessed as ratio of compound activation AUC to baseline activation AUC at 1.11 uM at -120 mV holding potential by Qpatch assay; assay type: cell-based
[12] = target: Sodium channel protein type 1 subunit alpha (Mus musculus) (UniProt A2APX8); experiment: Activation of Nav1.1 in C57BL/6 mouse GABAergic cortical neurons assessed as rescue of ICA-121431-induced neuronal firing loss at 300 nM at holding potential -65 mV by current clamp assay

| SMILES | Ratio AUC [1] | Ratio AUC [2] | Ratio AUC [3] | Ratio AUC [4] | Ratio AUC [5] | Ratio AUC [6] | Activity [7] | Ratio AUC [8] | Ratio AUC [9] | Ratio AUC [10] | Ratio AUC [11] | Activity [12] |
| --- | --- | --- | --- | --- | --- | --- | --- | --- | --- | --- | --- | --- |
| CC[C@H](C)[C@H](NC(=O)[C@H](CCCCN)NC(=O)[C@@H](NC(=O)[C@@H](N)CCCNC(=N)N)[C@@H](C)CC)C(=O)NCC(=O)N[C@@H](CC(C)C)C(=O)N[C@@H](Cc1ccccc1)C(=O)N[C@@H](CC(=O)O)C(=O)N[C@@H](CCC(N)=O)C(=O)N[C@@H](CC(C)C)C(=O)N[C@@H](CO)C(=O)N[C@@H](CCCNC(=N)N)C(=O)N[C@@H](CC(C)C)C(N)=O (H-RIKIGLFDQLSRL-NH2) | 1.3 | 0.8 | 1 | 1.1 | 1.2 | 1.4 | 40% | 1 | 1 | 0.9 | 1.1 | – |
| CC[C@H](C)[C@H](NC(=O)[C@H](CCCCN)NC(=O)[C@@H](NC(=O)[C@@H](N)CCCNC(=N)N)[C@@H](C)CC)C(=O)NCC(=O)N[C@@H](CC(C)C)C(=O)N[C@@H](Cc1cccc2ccccc12)C(=O)N[C@@H](CC(=O)O)C(=O)N[C@@H](CCC(N)=O)C(=O)N[C@@H](CC(C)C)C(=O)N[C@@H](CO)C(=O)N[C@@H](CCCNC(=N)N)C(=O)N[C@@H](CC(C)C)C(N)=O (H-RIKIGL[1Nal]DQLSRL-NH2) | 3.1 | 1.4 | 1.7 | 2.9 | 2 | 3.1 | – | 1 | 1.2 | 1.8 | 1.8 | Active |
| CC[C@H](C)[C@H](NC(=O)[C@H](CCCNC(=N)N)NC(=O)[C@@H](NC(=O)[C@@H](N)CCCNC(=N)N)[C@@H](C)CC)C(=O)NCC(=O)N[C@@H](CC(C)C)C(=O)N[C@@H](Cc1ccc2ccccc2c1)C(=O)N[C@@H](CC(=O)O)C(=O)N[C@@H](CCC(N)=O)C(=O)N[C@@H](CC(C)C)C(=O)N[C@@H](CC(C)C)C(=O)N[C@@H](CCCNC(=N)N)C(=O)N[C@@H](CC(C)C)C(N)=O (H-RIRIGL[2Nal]DQLLRL-NH2) | 8.1 | 1.6 | 1.3 | 9.6 | 4.4 | 12.7 | 1170% | 1.4 | 2.5 | 7.1 | 5.2 | – |
